Measurements as given in ChEMBL document CHEMBL3885861, “Open TG-GATES”.

Organism: Rattus norvegicus
Assay: Open TG-GATES - Regimen: Single
Assay type: toxicity, organism-based, Sprague-Dawley
Set-up: regimen Single, gender Male, age 6 weeks
Conditions: in vivo, po, 50 mg/kg, route gavage, dose level High; for ALT / AST / BUN / CRE / Ca / Cl / DBIL / GLC / IP / K / LDH / Na / PL / RALB / TBIL / TC / TG / TP / gamma-GTP / A/G / ALP: tissue Plasma; for APTT / Bas / Eos / Fbg / Hb / Ht / Lym / MCH / MCHC / MCV / Mono / Neu / PT / Plat / RBC / Ret / WBC: tissue Blood; for KIDNEY_L / KIDNEY_R / KIDNEY_TOTAL: tissue Kidney; for LIVER: tissue Liver

## COc1ccc2c(c1)c(CC(=O)O)c(C)n2C(=O)c1ccc(Cl)cc1 [INDOMETHACIN]
3 h
  ALT: 41.2 IU/L
  AST: 75 IU/L
  BUN: 11.4 mg/dL
  CRE: 0.4 mg/dL
  Ca: 10.4 mg/dL
  Cl: 102 meq/L
  DBIL: 0.072 mg/dL
  GLC: 217.4 mg/dL
  IP: 10.5 mg/dL
  K: 3.9 meq/L
  LDH: 221 IU/L
  Na: 140.4 meq/L
  PL: 125.4 mg/dL
  RALB: 3.3 g/dL
  TBIL: 0.1 mg/dL
  TC: 69.6 mg/dL
  TG: 43.4 mg/dL
  TP: 5.4 g/dL
  gamma-GTP: 1 IU/L
6 h
  TERMINAL_BW: 223.2 g
  APTT: 18.3 s
  Bas: 0%
  Eos: 0.4%
  Fbg: 214.4 mg/dL
  Hb: 13.7 g/dL
  Ht: 37.2%
  Lym: 64%
  MCH: 22.4 pg
  MCHC: 36.9%
  MCV: 60.8 fL
  Mono: 4.6%
  Neu: 28.6%
  PT: 12.3 s
  Plat: 113.8 x10_4/uL
  RBC: 612.2 x10_4/ul
  Ret: 8%
  WBC: 123.9 x10_2/uL
  KIDNEY_L: 0.9 g
  KIDNEY_R: 0.9 g
  KIDNEY_TOTAL: 1.9 g
  LIVER: 9.5 g
  A/G: 1.7
  ALP: 705.2 IU/L
  ALT: 35.4 IU/L
  AST: 73 IU/L
  BUN: 12.8 mg/dL
  CRE: 0.4 mg/dL
  Ca: 10.6 mg/dL
  Cl: 102.6 meq/L
  DBIL: 0.08 mg/dL
  GLC: 194.2 mg/dL
  IP: 9.4 mg/dL
  K: 4.1 meq/L
  LDH: 211.2 IU/L
  Na: 140.4 meq/L
  PL: 120.6 mg/dL
  RALB: 3.3 g/dL
  TBIL: 0.1 mg/dL
  TC: 64.8 mg/dL
  TG: 60.2 mg/dL
  TP: 5.3 g/dL
  gamma-GTP: 1 IU/L
9 h
  TERMINAL_BW: 222.5 g
  APTT: 19 s
  Bas: 0%
  Eos: 0.2%
  Fbg: 215.2 mg/dL
  Hb: 13.7 g/dL
  Ht: 36.9%
  Lym: 68.4%
  MCH: 22.5 pg
  MCHC: 37.2%
  MCV: 60.4 fL
  Mono: 3.8%
  Neu: 24.8%
  PT: 12.2 s
  Plat: 113.6 x10_4/uL
  RBC: 610.6 x10_4/ul
  Ret: 8%
  WBC: 107.9 x10_2/uL
  KIDNEY_L: 1 g
  KIDNEY_R: 1 g
  KIDNEY_TOTAL: 1.9 g
  LIVER: 9 g
  A/G: 1.7
  ALP: 738.8 IU/L
  ALT: 30.4 IU/L
  AST: 68.4 IU/L
  BUN: 12.8 mg/dL
  CRE: 0.4 mg/dL
  Ca: 10.3 mg/dL
  Cl: 103.8 meq/L
  DBIL: 0.072 mg/dL
  GLC: 200.8 mg/dL
  IP: 9.9 mg/dL
  K: 4.1 meq/L
  LDH: 199 IU/L
  Na: 140.6 meq/L
  PL: 126.6 mg/dL
  RALB: 3.3 g/dL
  TBIL: 0.1 mg/dL
  TC: 69.2 mg/dL
  TG: 40.8 mg/dL
  TP: 5.2 g/dL
  gamma-GTP: 1.2 IU/L
24 h
  TERMINAL_BW: 230 g
  APTT: 21.7 s
  Bas: 0%
  Eos: 0%
  Fbg: 260.8 mg/dL
  Hb: 9.5 g/dL
  Ht: 27%
  Lym: 61.4%
  MCH: 21.3 pg
  MCHC: 35.1%
  MCV: 60.6 fL
  Mono: 2.8%
  Neu: 33.4%
  PT: 12.7 s
  Plat: 67.9 x10_4/uL
  RBC: 448.8 x10_4/ul
  Ret: 8.4%
  WBC: 122.6 x10_2/uL
  KIDNEY_L: 1 g
  KIDNEY_R: 1 g
  KIDNEY_TOTAL: 2 g
  LIVER: 10.4 g
  A/G: 1.2
  ALP: 484.2 IU/L
  ALT: 25.2 IU/L
  AST: 48 IU/L
  BUN: 21.6 mg/dL
  CRE: 0.4 mg/dL
  Ca: 9.4 mg/dL
  Cl: 106.2 meq/L
  DBIL: 0.056 mg/dL
  GLC: 167.8 mg/dL
  IP: 8.6 mg/dL
  K: 4.2 meq/L
  LDH: 145.2 IU/L
  Na: 141.2 meq/L
  PL: 114 mg/dL
  RALB: 1.9 g/dL
  TBIL: 0.096 mg/dL
  TC: 60.4 mg/dL
  TG: 122.8 mg/dL
  TP: 3.5 g/dL
  gamma-GTP: 1 IU/L
